Reference: patent US20100093076A1, “SOLUBLE IL-27 RECEPTOR” (priority 2006, published 2010)

Columns and labels:
mouse spleens = experiment: IL-27 EC90 determination, phosphorylated STAT3 in mouse spleens; format: cell-based; conditions: read-out: EC90 concentration
Source text: (§1) Whole mouse spleens were harvested from C57 B1/6 mice and washed two times with 1×PBS before being plated out at 2×10^5 cells/well in assay media (RPMI 1640 plus 10% fetal bovine serum) in 96-well, round-bottom tissue culture plates. Total human PBMC (peripheral blood mononuclear cells) were thawed from a frozen vial collected from a leukapherisis donation and washed two times with 1×PBS before being plated out at 10^6 cells/well in assay media in 96-well, round-bottom tissue culture plates. […] Following pre-incubation, treatments were added to the plates containing the cells and incubated together at 37° C. for 15 minutes.
(§2) Following incubation, cells were washed with ice-cold wash buffer (BIO-PLEX Cell Lysis Kit, BIO-RAD Laboratories, Hercules, Calif.) and put on ice to stop the reaction according to manufacturer's instructions. […]
(§3) Capture beads (BIO-PLEX Phospho-Stat3 Assay, BIO-RAD Laboratories) were combined with 50 μL of 1:1 diluted lysates and added to a 96-well filter plate according to manufacture's instructions (BIO-PLEX Phosphoprotein Detection Kit, BIO-RAD Laboratories). […] After the final wash, beads were resuspended in 125 μL/well of bead suspension buffer, shaken for 30 seconds, and read on an array reader (BIO-PLEX, BIO-RAD Laboratories) according to the manufacture's instructions. Data were analyzed using analytical software (BIO-PLEX MANAGER 3.0, BIO-RAD Laboratories). […]

total human PBMCs = experiment: IL-27 EC90 determination, phosphorylated STAT3 in total human PBMCs; format: cell-based; conditions: read-out: EC90 concentration
Source text: as §1, §2, §3

Substance: huIL-27: Human IL-27 (R&D Systems)
- EC90 (mouse spleens): 2 nM
- EC90 (total human PBMCs): 2 nM
